Test results as given in US8143414B2, “Hepatitis C virus inhibitors” (Bristol-Myers Squibb Company, priority 2009, dated 2012).
pEC50: −log10 of the molar value.

tested on: HCV 1b genotype; test: HCV replicon assay, 1b genotype; type: cell-based; conditions: Hepatitis C virus; HCV 1b genotype replicon; EC50 = effective 50% inhibitory concentration
Experimental: An HCV Replion assay was utilized in the present disclosure, and was prepared, conducted and validated as described in commonly owned PCT/US2006/022197 and in O'Boyle et. al. Antimicrob Agents Chemother. 2005 April; 49(4):1346-53. Assay methods incorporating luciferase reporters have also been used as described (Apath.com).
HCV-neo replicon cells and replicon cells containing mutations in the NS5A region were used to test the currently described family of compounds. The compounds were determined to have more than 10-fold less inhibitory activity on cells containing mutations than wild-type cells. Thus, the compounds of the present disclosure can be effective in inhibiting the function of the HCV NS5A protein and are understood to be as effective in combinations as previously described in application PCT/US2006/022197 and commonly owned WO/04014852. Further, the compounds of the present disclosure can be effective against the HCV 1b genotype. It should also be understood that the compounds of the present disclosure can inhibit multiple genotypes of HCV. […] In one embodiment, compounds of the present disclosure are inhibitory versus 1a, 1b, 2a, 2b, 3a, 4a, and 5a genotypes.

First: COC(=O)N[C@H](C(=O)N1CCC[C@H]1c1ncc(-c2nc3cc4sc(-c5cnc([C@@H]6CCCN6C(=O)[C@@H](NC(=O)OC)C(C)C)[nH]5)nc4cc3s2)[nH]1)C(C)C [Example 1, Methyl ((1S)-1-(((2S)-2-(4-(6-(2-((28)-1-((2S)-2-((methoxycarbonyl)amino)-3-methylbutanoyl)-2-pyrrolidinyl)-1H-imidazol-4-yl)[1,3]thiazolo[5,4-f][1,3]benzothiazol-2-yl)-1H-imidazol-2-yl)-1-pyrrolidinyl)carbonyl)-2-methylpropyl)carbamate, bistrifluoracetate]
Second: COC(=O)N[C@@H](C(=O)N1CCC[C@H]1c1ncc(-c2nc3cc4sc(-c5cnc([C@@H]6CCCN6C(=O)[C@H](NC(=O)OC)C(C)C)[nH]5)nc4cc3s2)[nH]1)C(C)C [Example 3, Methyl ((1R)-1-(((2S)-2-(4-(6-(2-((2S)-1-((2R)-2-((methoxycarbonyl)amino)-3-methylbutanoyl)-2-pyrrolidinyl)-1H-imidazol-4-yl)[1,3]thiazolo[5,4-f][1,3]benzothiazol-2-yl)-1H-imidazol-2-yl)-1-pyrrolidinyl)carbonyl)-2-methylpropyl)carbamate, bistrifluoracetate]
The pEC50 of the first is 4.01 log units higher: 10.47 for the first, 6.46 for the second. The first is the more potent here.

Molecule `COC(=O)N[C@@H](C(=O)N1CCC[C@H]1c1ncc(-c2nc3cc4sc(-c5cnc([C@@H]6CCCN6C(=O)[C@H](NC(=O)OC)c6ccccc6)[nH]5)nc4cc3s2)[nH]1)c1ccccc1` [Example 2, Dimethyl ([1,3]thiazolo[5,4-f][1,3]benzothiazole-2,6-diylbis(1H-imidazole-4,2-diyl(2S)-2,1-pyrrolidinediyl((1R)-2-oxo-1-phenyl-2,1-ethanediyl)))biscarbamate, bistrifluoracetate] has a pEC50 of 10.60.
